Data on eight compounds can be found in patent publication US20230301973A1, “TREATMENT OF DIFFUSE INTRINSIC PONTINE GLIOMA” (priority 2016, published 2023).

Read-outs that look alike come from different tables or passages of the source.

For data set [1] the following is noted: cited from earlier work; for MTD: clinical.
Another data set relates to primary DIPG cell lines. Kind of data set: Effect on primary DIPG cell lines / primary tumor astrocytes. In kind it is cell-based. An excerpt:
Maternal embryonic leucine zipper kinase (MELK) is a serine/threonine kinase implicated in many cellular processes involved in embryogenesis and oncogenesis. Overexpression of MELK is a common feature of diffuse intrinsic pontine glioma (DIPG) and related to tumor grade.

For a further data set, the system named is normal astrocytes. Kind of data set: Effect on normal astrocytes. It counts as cell-based. As to conditions: 10 nanomolar.
The nature of data set [2]: Transport over the blood-brain barrier, brain-to-plasma ratio. In kind it is in vivo, mouse.

As for `CCN(CCCOc1ccc2c(Nc3cc(CC(=O)Nc4cccc(F)c4)n[nH]3)ncnc2c1)CCOP(=O)(O)O` [AZD1152], the MTB in data set [1] (clinical evaluation, dependent on the dosing schedule) is 200 to 450 mg.
For the compound `CS(=O)(=O)c1ccc(C(=O)Nc2ccc(Cl)c(-c3ccccn3)c2)c(Cl)c1` [Vismodegib], in data set [1], the MTD result is listed as “Not reached up to 540 mg/d”.
With `CC(=O)c1cnc2ccc(-c3cc(Cl)c(O)c(Cl)c3)nc2c1NC1CCC(CN(C)C)CC1` (stereo not shown) [OTS167, 1-[6-(3,5-Dichloro-4-hydroxyphenyl)-4-({4-[(dimethylamino)methyl]cyclohexyl}amino)-1,5-naphthyridin-3-yl]ethanone], in the data set with primary DIPG cell lines (10 nM, most DIPG tumor cell lines), the “Toxicity / apoptosis on primary tumor astrocytes” value is “toxic and induces apoptosis”. Also, in the data set with primary DIPG cell lines (low nanomolar concentrations), the “Cell death in primary DIPG cell lines” value is “induces cell death”, the “Migration of primary DIPG cell lines” value is “effectively inhibits migration” and the “Proliferation of primary DIPG cell lines” value is recorded as “reduces proliferation”. Further, in the data set on normal astrocytes, the “Apoptosis in non-somatic (normal) cells” value is reported as “no apoptosis occurs” and the “Growth of normal astrocytes” value is on record as “only slightly slows down the growth”. The “Factor of increase of concentration in brain tissue” value in data set [2] (co-administering a P-glycoprotein1 / Abcb1a inhibitor) is listed as not below 4. In data set [2] (mouse, brain and plasma, mouse models (wild type), passive transport, read-out: Brain-to-plasma (B/P) ratio), the Kp was 0.02. In addition, the “Absolute concentration reached in the brain” value in data set [2] (with pharmaceutically acceptable toxic adverse effects) is listed as “about 10 nanomolar”.
For Pembrolizumab, in data set [1], the MTD entry was “Not reached up to 10 mg/kg q2w”.
For the compound `CC[C@H](Nc1ncnc2[nH]cnc12)c1nc2cccc(F)c2c(=O)n1-c1ccccc1` [Idelalisib], in data set [1], the MTD result is listed as “Not reached up to 350 mg twice a day”.
Regarding `C[C@@H](Oc1cc(-c2cnn(C3CCNCC3)c2)cnc1N)c1c(Cl)ccc(F)c1Cl` [Crizotinib], in data set [1], the MTD is on record as 250 mg twice a day.
In the case of `Nc1ncn([C@H]2C[C@H](O)[C@@H](CO)O2)c(=O)n1` [Decitabine], the MTD in data set [1] (over 1-3 days) is on record as 1,500-2,000/mg/m^2 over 1-3 days.
Consider `Cc1cccc(-c2nn3c(c2-c2ccnc4ccc(C(N)=O)cc24)CCC3)n1` [Galunisertib], for which the MTD result in data set [1] (result in words) is “Not able to determine MTD due to potential cardiovascular DLT”.
